Measurements as given in US20250163057A1, “DCN-1 MODULATING COMPOUNDS AND METHODS OF USE THEREOF” (Cellarity, Inc., priority 2023, published 2025).
Where two headings read alike, the source gives them in different places.

How the values were obtained:
[1] = test system: fetal hemoglobin gene HBG1; test: HBG1 Nanostring Assay in CD34+ HSPC erythroid differentiation culture; type: cell-based, human; details: for EC50: Homo sapiens, 240 h, HBG1 induction, Day10 of erythroid differentiation; for Nanostring Ymax obs (%): relative to a control compound (C1)
Description: A Nanostring Assay was performed to evaluate the ability of the compounds to induce expression of the fetal hemoglobin gene HBG1 in cells. The data are shown as EC50, with stronger inducers having a lower EC50 value and higher YMax.
Forty eight hours later (day −2), the cells were passaged at a density of 200,000 cells/ml (100 ul/well in 96well culture plate) in complete expantion media. The cells were plated at 200,000 cells/ml on day 0 and day 3, 400,000 cells/ml on day 5 in phase 1 erythroid differentiation containing StemSpan with 2.5 U/mL of EPO (R&D systems, 287-TC-500), 0.5 mg/mL of Holo-Transferrin (Sigma, T0665-500MG), 1× Glutamine (Gluta-Max) (Gibco, 35050-061), 5 μL/mL Lipid Mixture (Sigma, L0288-100ML), 50 ng/mL SCF (R&D Systems, 255-SV-050), 10 ng/mL IL-3 (R&D Systems, 203-IL010) and 10 ng/mL Insulin (Sigma, I9278-5ML) all 200 μl per well in 96 well culture plate. Cells were then passaged at 500,000 cells/ml and 200 μl per well on day 7 in phase 2 Erythroid differentiation (Phase 1 erythroid differentiation removing IL-3) until collection day (Day10). The culture conditions were used for both control DMSO as well as experimental treatments.
For all cell pasagings, cells were centrifuged at 300 g for 8 minutes at room temperature and cell number were normalized by MANTIS and Integra VIAFLO 384. All the compounds are diluted in DMSO and added to complete media by Formulatrix FAST and mixed starting from day −2. Cells were counted by Luna cell counter with AOPI Staining Solution (Nexcelom Bioscience, CS2-0106-25 mL) on day-2. Cells were counted by BD FACSCelesta Flow Cytometer with CountBright™ Plus Absolute Counting Beads (Thermal Fisher Scientific, C36995) and SYTOX AADvanced™ Ready Flow™ Reagent (Invitrogen, R37173) for other passages. Cells were cultured at 37° C. and 5% CO2. DMSO concentration was kept at 0.1% to minimize any effects to the cells by the vehicle. […] Compound plates were kept at room temperature to protect from light to avoid multiple freeze and thaw cycle.
On the collection day (Day10), 100K cells were collected and stored at −80° C. For direct hybridization for Nanostring, 100K cell pellet was lyzed in 25 μL of RLT (QIAGEN, 79216) with 1×β-Mercaptoethanol (Gibco, 21985-023) and shaked at 300-500 RPM for 5 minutes at room temperature. Cell lysate was stored in −80° C. after lysis.
All hybridizations were done in a total volume of 15 μL (3 μL of RNA lysate added to master mix of 12 μL probe A/B, capture probe/reporter probes, proteinase K and attenuation oligos suspended in hybridization buffer). Samples were hybridized at 67° C. for 22 hr. Following hybridization, the tripartide complexes were purified, immobilized by nCounter Prep Station and imaged by Digital Analyzer (nCounter MAX/FLEX Analysis System), to generate digital counts of barcodes corresponding to each target in the multiplexed reaction. Labeled barcodes obtained from unamplified extracts were counted at 555 images or field of view (FOV). The barcode counts for each sample were recorded in Reporter Code Count (RCC) files that are imported into nSolver analysis software (provided with CodeSet by NS) for quality control evaluation.
The quality control (QC) metric included limit of detection QC by checking for wells with less than 100 total counts for positive controls.
Hybridization signals were normalized against the ERCC positive controls and CodeSet Content (housekeeping gene). Briefly, this involved first calculating a sample-specific scaling factor by calculating arithmetic mean of geomeans of all ERCC positive controls with counts more than zero in all samples. Then this arithmetic mean was divided by the geometric mean of each lane to generate a lane-specific normalization factor. All negative controls and target-specific signal values were then normalized by multiplying counts values with their sample-specific scaling factor. The acceptable range for scaling factors is 0.3-3.0. […]

[2] = test system: Cullin-3 (CUL3) neddylation; test: AlphaLISA assay for Cullin-3 (CUL3) neddylation in TF 1 cells; type: cell-based; details: Homo sapiens, TF-1, 3 h, 3 hours treatment
Summary of the method: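 TF 1 cells in unsupplemented IMDM treated with compound concentrations for 3 h, then lysed. CUL3 neddylation detected by AlphaLISA (biotinylated anti-NEDD8, anti-CUL3 acceptor beads overnight, streptavidin donor beads 1 h); normalized to vehicle (0%) and 1 μM DI-1548 (100%), IC50 from Hill fits.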

[3] = target: DCN1 (DCUND1) protein PONY domain (Homo sapiens (Human), UniProt Q96GG9); test: TR-FRET assay, DCN1 binding with FAM-labeled probe
Summary of the method: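 First, the E. coli-derived PONY domain was biotinylated and paired with streptavidin Tb cryptate. Compounds in 0.1% DMSO were then added to DCN1 and FAM-probe (5 nM/20 nM, or 0.31 nM/900 nM total with 800 nM unlabelled) in TritonX, 200 mM NaCl buffer. Finally, TR-FRET ratios were recorded at 1, 5 and 24 hrs.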

[4] = 24 hr after treatment with compound, read-out: TR FRET IC50 24 hr
[5] = read-out: TR FRET IC50 1 hr, 1 hr after treatment with compound
[6] = TR FRET IC50 1 hr (nM), 1 hr after treatment with compound

Sequence of DCN1 (DCUND1) protein PONY domain (Q96GG9 60-248): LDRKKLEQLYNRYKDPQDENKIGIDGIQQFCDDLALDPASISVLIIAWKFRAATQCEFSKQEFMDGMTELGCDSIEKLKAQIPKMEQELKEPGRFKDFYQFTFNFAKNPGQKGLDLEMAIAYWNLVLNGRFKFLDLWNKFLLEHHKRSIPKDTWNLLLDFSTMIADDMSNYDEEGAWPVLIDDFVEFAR

With C=C(CN1CC2CCC1CO2)C(=O)NCc1nn(-c2ccccc2)c2c1[C@H](c1ccc(F)cc1)[C@H](NC(=O)c1cccc(C(F)(F)F)c1)C(=O)N2CC (mixture of isomers) [Compound I-447] the EC50 [1] was no more than 100 nM, the “Nanostring Ymax obs (%)” value [1] was “+++ (Nanostring Ymax greater than 100.0)” and the IC50 [2] was no more than 100 nM. The IC50 [3, 4] was no more than 200 nM and the IC50 [3, 5] was no more than 200 nM.

For C=C(CN1CC2CC1C2)C(=O)NCc1nn(-c2ccccc2)c2c1[C@H](c1ccc(F)cc1)[C@H](NC(=O)c1cccc(C(F)(F)F)c1)C(=O)N2CC (mixture of isomers) [Compound I-456], the “Nanostring Ymax obs (%)” value [1] was “++ (Nanostring Ymax greater than 50.0 and less than or equal to 100.0)”, the IC50 [2] was no more than 100 nM and the IC50 [3, 4] was no more than 200 nM. It also gave an IC50 [3, 5] of no more than 200 nM.

With CCN1C(=O)[C@@H](NC(=O)c2cccc(C(F)(F)F)c2)[C@@H](c2ccc(F)cc2)c2c([C@@H](CCCO)NC#N)nn(-c3ccccc3)c21 [Compound I-399] the EC50 [1] was 100 to 1000 nM, the “Nanostring Ymax obs (%)” value [1] was “++ (Nanostring Ymax greater than 50.0 and less than or equal to 100.0)” and the IC50 [2] was no more than 100 nM. For the same compound, the IC50 [3, 4] was no more than 200 nM and the IC50 [3, 5] was no more than 200 nM.

CCN1C(=O)[C@@H](NC(=O)c2cccc(C(F)(F)F)c2)[C@@H](c2ccc(F)cc2)c2c(CN(C#N)CCCCN(C)C)nn(-c3ccccc3)c21 [Compound I-248, ˜{N}-[(4˜{S},5˜{S})-3-[[cyano-[4-(dimethylamino)butyl]amino]methyl]-7-ethyl-4-(4-fluorophenyl)-6-oxo-1-phenyl-4,5-dihydropyrazolo[3,4-b]pyridine-5-yl]-3-(trifluoromethyl)benzamide] was tested, and the “Nanostring Ymax obs (%)” value [1] was “++ (Nanostring Ymax greater than 50.0 and less than or equal to 100.0)”, the IC50 [2] was no more than 100 nM and the IC50 [3, 4] was no more than 200 nM. The IC50 [3, 6] was 200 to 1000 nM.

In the case of C=C(CN1C2CCC1COC2)C(=O)NCc1nn(-c2ccccc2)c2c1[C@H](c1ccc(F)cc1)[C@H](NC(=O)c1cccc(C(F)(F)F)c1)C(=O)N2CC (mixture of isomers) [Compound I-613], the “Nanostring Ymax obs (%)” value [1] is reported as “+++ (Nanostring Ymax greater than 100.0)”, the IC50 [2] is reported as no more than 100 nM and the IC50 [3, 4] is reported as no more than 200 nM. For the same compound, the IC50 [3, 5] was no more than 200 nM.

For C=C(CN1CCN(C2COC2)CC1)C(=O)NCc1nn(-c2ccccc2)c2c1[C@@H](c1ccc(F)cc1)[C@H](NC(=O)c1cccc(C(F)(F)F)c1)C(=O)N2CC (racemic) [Compound I-40], the “Nanostring Ymax obs (%)” value [1] was “++ (Nanostring Ymax greater than 50.0 and less than or equal to 100.0)”, the IC50 [2] was no more than 100 nM and the IC50 [3, 4] was no more than 200 nM. It also gave an IC50 [3, 5] of no more than 200 nM.

C=C(CN1CC2(CCC2O)C1)C(=O)NCc1nn(-c2ccccc2)c2c1[C@H](c1ccc(F)cc1)[C@H](NC(=O)c1cccc(C(F)(F)F)c1)C(=O)N2CC (mixture of isomers) [Compound I-458] was tested, and the “Nanostring Ymax obs (%)” value [1] was “++ (Nanostring Ymax greater than 50.0 and less than or equal to 100.0)”, the IC50 [2] was no more than 100 nM and the IC50 [3, 4] was no more than 200 nM. For the same compound, the IC50 [3, 5] was no more than 200 nM.

With CCN1C(=O)[C@H](NC(=O)c2cccc(C(F)(F)F)c2)[C@@H](c2ccc(F)cc2)c2c([C@@H](C)NC#N)nn(-c3ccccc3)c21 [Compound I-637] the “Nanostring Ymax obs (%)” value [1] was “+ (Nanostring Ymax greater than or equal to 0.0 and less than or equal to 50.0)”, the IC50 [2] was greater than 1000 nM and the IC50 [3, 4] was 200 to 1000 nM. For the same compound, the IC50 [3, 6] was 1000 to 3000 nM.

For CCN1C(=O)[C@@H](NC(=O)c2cccc(C(F)(F)F)c2)[C@@H](c2ccc(F)cc2)c2c(CN(C#N)CCCN(C)C)nn(-c3ccccc3)c21 [Compound I-247, ˜{N}-[(4˜{S},5˜{S})-3-[[cyano-[3-(dimethylamino)propyl]amino]methyl]-7-ethyl-4-(4-fluorophenyl)-6-oxo-1-phenyl-4,5-dihydropyrazolo[3,4-b]pyridine-5-yl]-3-(trifluoromethyl)benzamide], the EC50 [1] was greater than 1000 nM, the “Nanostring Ymax obs (%)” value [1] was “++ (Nanostring Ymax greater than 50.0 and less than or equal to 100.0)” and the IC50 [2] was no more than 100 nM. For the same compound, the IC50 [3, 4] was no more than 200 nM and the IC50 [3, 5] was no more than 200 nM.

CCN1C(=O)[C@@H](NC(=O)c2cccc(C(F)(F)F)c2)[C@@H](c2ccc(F)cc2)c2c([C@H](CCO)NC#N)nn(-c3ccccc3)c21 (mixture of isomers) [Compound I-576] was tested, and the EC50 [1] was greater than 1000 nM, the “Nanostring Ymax obs (%)” value [1] was “+ (Nanostring Ymax greater than or equal to 0.0 and less than or equal to 50.0)” and the IC50 [2] was no more than 100 nM. It also gave an IC50 [3, 4] of no more than 200 nM and an IC50 [3, 6] of 200 to 1000 nM.

With CCN1C(=O)[C@@H](NC(=O)c2cccc(C(F)(F)F)c2)[C@@H](c2ccc(F)cc2)c2c(C(=O)N[C@@H](C)C#N)nn(-c3ccccc3)c21 [Compound I-254, (4S,5S)—N—((S)-1-cyanoethyl)-7-ethyl-4-(4-fluorophenyl)-6-oxo-1-phenyl-5-(3-(trifluoromethyl)benzamido)-4,5,6,7-tetrahydro-1H-pyrazolo[3,4-b]pyridine-3-carboxamide] the EC50 [1] was greater than 1000 nM, the “Nanostring Ymax obs (%)” value [1] was “++ (Nanostring Ymax greater than 50.0 and less than or equal to 100.0)” and the IC50 [2] was no more than 100 nM. It also gave an IC50 [3, 4] of no more than 200 nM and an IC50 [3, 6] of 200 to 1000 nM.

C=C(CN1CCCC1)C(=O)NCc1nn(-c2ccccc2)c2c1[C@H](c1ccc(F)cc1)[C@H](NC(=O)c1cccc(C(F)(F)F)c1)C(=O)N2CC [Compound I-612] was tested, and the “Nanostring Ymax obs (%)” value [1] was “++ (Nanostring Ymax greater than 50.0 and less than or equal to 100.0)”, the IC50 [2] was no more than 100 nM and the IC50 [3, 4] was no more than 200 nM. For the same compound, the IC50 [3, 5] was no more than 200 nM.

C=C(CN(C)C1COC1)C(=O)NCc1nn(-c2ccccc2)c2c1[C@@H](c1ccc(F)cc1)[C@H](NC(=O)c1cccc(C(F)(F)F)c1)C(=O)N2CC (racemic) [Compound I-491] was tested, and the EC50 [1] was no more than 100 nM, the “Nanostring Ymax obs (%)” value [1] was “++ (Nanostring Ymax greater than 50.0 and less than or equal to 100.0)” and the IC50 [2] was no more than 100 nM. The IC50 [3, 4] was no more than 200 nM and the IC50 [3, 6] was 200 to 1000 nM.

With C=C(CN(C)CC1COC1)C(=O)NCc1nn(-c2ccccc2)c2c1[C@H](c1ccc(F)cc1)[C@H](NC(=O)c1cccc(C(F)(F)F)c1)C(=O)N2CC [Compound I-574] the EC50 [1] was no more than 100 nM, the “Nanostring Ymax obs (%)” value [1] was “++ (Nanostring Ymax greater than 50.0 and less than or equal to 100.0)” and the IC50 [2] was no more than 100 nM. The IC50 [3, 4] was no more than 200 nM and the IC50 [3, 5] was no more than 200 nM.

For C=CS(=O)(=O)NCc1nn(-c2ccccc2)c2c1[C@H](c1ccc(F)cc1)[C@H](NC(=O)c1cccc(C(F)(F)F)c1)C(=O)N2CC (racemic) [Compound I-230], the EC50 [1] was greater than 1000 nM, the “Nanostring Ymax obs (%)” value [1] was “++ (Nanostring Ymax greater than 50.0 and less than or equal to 100.0)” and the IC50 [2] was no more than 100 nM.
